pIC50: −log10 of the molar value.

The record followed here is patent US9458456B2, “Methods and compositions for the diagnosis, classification, and treatment of cancer” (UNIVERSITY OF SOUTH ALABAMA, priority 2011, dated 2016).

Common to all, as to type: cell-based
Holding throughout (conditions): Homo sapiens

In assay [1] the test system is C4-2 castration-resistant prostate cancer cells. In words: Docetaxel cell viability, C4-2 cells. The protocol: (§1) Castration-resistant prostate cancer cells (C4-2), Myb-knockdown castration-resistant prostate cancer cells (C4-2 shMyb), androgen-dependent prostate cancer cells (LNCap-Neo), Myb-overexpressing androgen-dependent prostate cancer cells (LNCaP-Myb), were treated with increasing concentrations of Docetaxel and the viability tested at 48 hr and 72 hr post-treatment. […] Table 2 summarizes the IC50 values for docetaxel in the various cell lines.

The test system of assay [2] is LNCaP-Neo androgen-dependent prostate cancer cells. In words: Docetaxel cell viability, LNCaP-Neo cells. On the procedure: as §1
Assay [3] relates to C4-2 shMyb Myb-knockdown castration-resistant prostate cancer cells. In words: Docetaxel cell viability, C4-2shMyb cells. The protocol:
as §1

Assay [4] concerns LNCaP-Myb Myb-overexpressing androgen-dependent prostate cancer cells. In words: Docetaxel cell viability, LNCaP-Myb cells. The protocol:
as §1

Regarding `CC(=O)O[C@@]12CO[C@@H]1C[C@H](O)[C@@]1(C)C(=O)[C@H](O)C3=C(C)[C@@H](OC(=O)[C@H](O)[C@@H](NC(=O)OC(C)(C)C)c4ccccc4)C[C@@](O)([C@@H](OC(=O)c4ccccc4)[C@H]21)C3(C)C` [Docetaxel], the pIC50 in assay [1] (C4-2, 48 hours) was 4.74; in assay [1] (C4-2, 72 hours) it was 4.88; in assay [2] (48 hours) it was 5.12; in assay [2] (72 hours), 5.31; in assay [3] (48 hours), 5.15; in assay [3] (72 hours) it was 5.32. The pIC50 in assay [4] (48 hours) is 4.69; in assay [4] (72 hours), 4.83.
